Earlier results on one compound are cited in patent US4745233A, “Derivatives of 1,1,2,2-tetramethyl-1,2-bis-(2-fluoro-4-hydroxyphenyl)-ethane” (Asta-Werke Aktiengesellschaft, priority 1985, dated 1988).

The subject of data set [1] is oestrone- or oestradiol-stimulated uterus growth. The conditions noted are these: juvenile mice; known compound.
The target of the next data set is T1, oestrogen receptor (Bos taurus, UniProt P49884).
T1 sequence (P49884 1-596): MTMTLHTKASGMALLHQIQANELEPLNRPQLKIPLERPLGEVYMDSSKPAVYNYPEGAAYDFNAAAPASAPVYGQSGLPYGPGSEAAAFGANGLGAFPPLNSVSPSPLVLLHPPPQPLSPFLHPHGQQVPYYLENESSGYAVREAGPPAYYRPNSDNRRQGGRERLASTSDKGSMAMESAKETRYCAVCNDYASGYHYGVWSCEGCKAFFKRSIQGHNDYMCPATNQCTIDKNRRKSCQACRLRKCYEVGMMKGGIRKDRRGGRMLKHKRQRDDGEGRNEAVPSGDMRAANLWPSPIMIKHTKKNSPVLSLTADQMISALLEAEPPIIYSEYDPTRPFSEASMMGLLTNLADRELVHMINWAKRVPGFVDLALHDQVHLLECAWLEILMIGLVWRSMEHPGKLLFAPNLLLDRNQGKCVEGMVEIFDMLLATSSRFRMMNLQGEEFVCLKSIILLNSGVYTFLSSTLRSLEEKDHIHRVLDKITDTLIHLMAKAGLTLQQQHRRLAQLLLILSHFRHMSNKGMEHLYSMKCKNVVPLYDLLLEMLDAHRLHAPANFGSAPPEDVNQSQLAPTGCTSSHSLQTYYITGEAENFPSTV
The conditions noted are these: known compound, literature.

In data set [2] the test system is DMBA-induced mammary carcinomas. The conditions noted are these: Sprague Dawley rats; known compound.

As to `CC(C)(c1ccc(O)cc1)C(C)(C)c1ccc(O)cc1` [1,1,2,2-tetramethyl-1,2-bis-(4-hydroxyphenyl)-ethane], in data set [1], the “antioestrogen effect: inhibition of oestrone- or oestradiol-stimulated uterus growth” value is recorded as “strong effect as antioestrogen”. Besides, at oestrogen receptor, the relative binding affinity is 3.6. Further, the “growth of DMBA-induced mammary carcinoma” value in data set [2] is “inhibits the growth”.
